pEC50: −log10 of the molar value.
Columns and labels:
P2X4 receptor [1] = target: T1, P2X4 receptor (Mus musculus, UniProt Q9JJX6); test: cell-based
T1 sequence (Q9JJX6 1-388): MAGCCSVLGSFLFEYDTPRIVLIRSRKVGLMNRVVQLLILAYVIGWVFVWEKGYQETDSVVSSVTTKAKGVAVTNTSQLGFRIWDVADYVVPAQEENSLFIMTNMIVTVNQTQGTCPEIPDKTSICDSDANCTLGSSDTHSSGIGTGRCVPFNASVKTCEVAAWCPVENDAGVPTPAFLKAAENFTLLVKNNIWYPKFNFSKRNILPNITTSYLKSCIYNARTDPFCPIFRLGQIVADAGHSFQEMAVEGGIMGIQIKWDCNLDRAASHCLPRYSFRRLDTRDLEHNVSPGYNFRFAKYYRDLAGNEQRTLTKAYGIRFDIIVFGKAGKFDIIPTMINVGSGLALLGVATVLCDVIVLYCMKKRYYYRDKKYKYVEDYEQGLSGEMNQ

P2X4 receptor [2] = target: T1, P2X4 receptor; test: whole-cell voltage clamp, agonist-evoked inward current; assay type: cell-based

pEC50 (P2X4 receptor [1]) | whole-cell voltage clamp, agonist-evoked inward current (partial agonist) (P2X4 receptor [2]) | Compound
4.48 |  | Nc1ncnc2c1ncn2[C@@H]1O[C@H](COP(=O)(O)OP(=O)(O)OP(=O)(O)O)[C@@H](O)[C@H]1O [ATP]
 | α,β-Methylene ATP was a partial agonist | Nc1ncnc2c1ncn2[C@@H]1O[C@H](COP(=O)(O)CP(=O)(O)OP(=O)(O)O)[C@@H](O)[C@H]1O [α,β-Methylene ATP]

Reference: paper PMC2847917 (The Journal of General Physiology, 2010)
